# Experimental data: patent US20250388568A1, “NLRP3 INHIBITORS” (Kodiak Sciences Inc., priority 2022, published 2025)
# Like-named read-outs stand apart in the source and are kept apart here.
# How the values were obtained:
# [1] = system: IL-1β release in THP-1-ASC-GFP cells after NLRP3 activation; experiment: IC50 determination of IL-1β release inhibition in THP-1-ASC-GFP cells; type: cell-based; conditions: THP1-ASC-GFP, read-out: IL-1β IC50 (nM) THP1 cells
# Method: Example 78: IC50 Determination of IL-1β Release Inhibition in THP-1-ASC-GFP Cells The compounds were tested for their ability to inhibit the IL-1β release in the THP-1-ASC-GFP cells after NLRP3 activation. THP1-ASC-GFP cells (Invivogen […] thawed following Invivogen's initial culture procedure. […] The growth medium was composed of RPM1640 medium (Gibco 32404-014), 10% heat inactivated (HI) serum (Gibco A3840102), Pen/Strep (Quality Biologics 118-089-721), 10 mM Hepes (Quality Biologics 118-089-721), 2 mM Glutamax (GIBCO 35050-061), 100 μg/mL normocin (Invivogen ant-nr), 100 μg/mL Zeocin (Invivogen ant-zn). The growth medium was freshly prepared once a week and sterile filtered. Assay medium consisted of RPMI 1640 medium, 10 mM Hepes, 2 mM Glutamax and Pen/Strep. To the assay medium, 1 μg/mL LPS (Invivogen tlrl-3pelps) was added. A cell suspension was prepared with assay medium and LPS at 1.25M cells per mL. With an electronic pipet, 80 μl of cell suspension was added to U bottom 96 well polystyrene plates (VWR 10062-902) leaving columns 1 and 2 empty. The plates were placed in the incubator for 4 hours. […] DMSO). An hour prior to the end of LPS incubation, a separate 96 deep well plate, Plate B, was prepared with 400 μL of assay media per well, then 2 μL of the stock DMSO solution from Plate A was added to each corresponding well. Plate B was covered to avoid media evaporation. In a 50 mL tube, a solution of nigericin in assay media at […] concentration was prepared. To a new 96 deep well plate, Plate C, 200 μL of this nigericin containing media was dispensed to each well and […] of the test compounds from Plate A to each corresponding well was added. Plate C was covered to avoid media evaporation. After 4 hours of priming, all the media from the LPS treated THP-1 cells in the initial U bottom plate was removed manually. To this plate of primed cells, 80 μL/well test compounds from Plate B was added in duplicate columns (5 compounds tested per plate). The plate was placed in an incubator for 30 min. […] The plate was placed back in the incubator for 1 hour. At the end of 1 hour, the supernatant from this test plate was transferred to a new 96 well V bottom polypropylene plate which was frozen immediately at -80° C. The plate was transferred to -20° C. the next day and awaiting further determination of cytokine IL-1β level. The release of IL-1β into the cell media was determined by MSD® Multi-Spot Assay System (V-Plex, IL-1B kit, […]-4). Following the manufacture's protocol and using the Alternate Protocol 3, Dilute-In-Plate protocol specifically, the level of IL-1β in the above collected supernatant plate was measured as electrochemiluminescent signals. Using MSD DISCOVERY WORKBENCH® analysis software, the signals were converted to the concentration of IL-1β in each well. The IC50 values of the compounds were calculated using the Graph Pad Prism software based on the […] concentration determined. The detection range of IL-1β using MSD kit was approximately […] (based on various lots of standards purchased from MSD).
# [2] = system: IL-1β release in U937 cells after NLRP3 activation; experiment: IC50 determination of IL-1β release inhibition in U937 cells; type: cell-based; conditions: Homo sapiens, read-out: IL-1β IC50 (nM) U937 cells
# In short: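 PMA-differentiated U937 cells (90 h) were primed 5 h with 1 μg/mL LPS, pre-incubated 30 min with compound, then stimulated with nigericin for 1 h. Supernatant IL-1β was quantified by MSD electrochemiluminescence. IC50 was derived from IL-1β concentration, with duplicate wells per compound.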
# [3] = THP-1-ASC-GFP cells, LPS priming 4 h, nigericin, average of at least three experiments
# [4] = U-937, PMA-differentiated U937 cells, LPS priming 5 h, nigericin, average of at least three experiments
Compound,"IC50 [1, 3] [nM]","IC50 [2, 4] [nM]",IC50 ([1]; 4 h) [nM],"IC50 ([2]; U-937, 5 h) [nM]"
"Cc1oc([S@@](=N)(=O)NC(=O)Nc2c3c(c(F)c4c2CCC4)CCC3)cc1CNC(C)C (single isomer, unassigned) [Example 28]",50 to 500,50 to 500,,
"Cn1nc(S(=O)(=O)NC(=O)Nc2c3c(c(F)c4c2CCC4)CCC3)cc1CNCC1(O)CCC1 [Example 59, N-((8-fluoro-1,2,3,5,6,7-hexahydro-s-indacen-4-yl)carbamoyl)-5-((((1-hydroxycyclobutyl)methyl)amino)methyl)-1-methyl-1H-pyrazole-3-sulfonamide]",5 to 50,5 to 50,,
"CC(C)NCc1coc([S@@](=N)(=O)NC(=O)Nc2c3c(c(F)c4c2CCC4)CCC3)c1 (single isomer, unassigned) [Example 30]",50 to 500,> 500,,
"Cn1nc(S(=O)(=O)NC(=O)Nc2c3c(c(F)c4c2CCC4)CCC3)cc1CN1CCC[C@H]1CO [Example 62, (S)-N-((8-fluoro-1,2,3,5,6,7-hexahydro-s-indacen-4-yl)carbamoyl)-5-((2-(hydroxymethyl)pyrrolidin-1-yl)methyl)-1-methyl-1H-pyrazole-3-sulfonamide]",5 to 50,5 to 50,,
"Cc1oc(S(=O)(=O)NC(=O)Nc2c3c(c(F)c4c2CCC4)CCC3)cc1CN1CCC[C@H]1CO [Example 44, (S)-N-((8-fluoro-1,2,3,5,6,7-hexahydro-s-indacen-4-yl)carbamoyl)-4-((2-(hydroxymethyl)pyrrolidin-1-yl)methyl)-5-methylfuran-2-sulfonamide]",5 to 50,5 to 50,,
"Cn1nc(S(=O)(=O)NC(=O)Nc2c3c(c(F)c4c2CCC4)CCC3)cc1CN1CC[C@@H](O)C1 [Example 61, (R)-N-((8-fluoro-1,2,3,5,6,7-hexahydro-s-indacen-4-yl)carbamoyl)-5-((3-hydroxypyrrolidin-1-yl)methyl)-1-methyl-1H-pyrazole-3-sulfonamide]",50 to 500,50 to 500,,
"Cc1oc(S(=O)(=O)NC(=O)Nc2c3c(c(F)c4c2CCC4)CCC3)cc1CNCC1(O)CCC1 [Example 36, N-((8-fluoro-1,2,3,5,6,7-hexahydro-s-indacen-4-yl)carbamoyl)-4-((((1-hydroxycyclobutyl)methyl)amino)methyl)-5-methylfuran-2-sulfonamide]",5 to 50,50 to 500,,
"Cc1oc(S(=O)(=O)NC(=O)Nc2c3c(c(Cl)c4c2CCC4)CCC3)cc1CN(C)CC1(O)CCC1 [Example 48, N-((8-chloro-1,2,3,5,6,7-hexahydro-s-indacen-4-yl)carbamoyl)-4-((((1-hydroxycyclobutyl)methyl)(methyl)amino)methyl)-5-methylfuran-2-sulfonamide]",< 5,5 to 50,,
"Cc1oc(S(=N)(=O)NC(=O)Nc2c3c(cc4c2CCC4)CCC3)cc1CN1CC[C@H](CO)C1 (stereo partly drawn) [Example 6, N-((1,2,3,5,6,7-hexahydro-s-indacen-4-yl)carbamoyl)-4-(((S)-3-(hydroxymethyl)pyrrolidin-1-yl)methyl)-5-methylfuran-2-sulfonimidamide]",< 5,5 to 50,,
"Cc1oc(S(=N)(=O)NC(=O)Nc2c3c(cc4c2CCC4)CCC3)cc1CN(C)CC1(O)CCC1 (stereo not drawn) [Example 12, N-((1,2,3,5,6,7-hexahydro-s-indacen-4-yl)carbamoyl)-4-((((1-hydroxycyclobutyl)methyl)(methyl)amino)methyl)-5-methylfuran-2-sulfonimidamide]",< 5,< 5,,
"Cc1oc(S(=N)(=O)NC(=O)Nc2c3c(cc4c2CCC4)CCC3)cc1CN1CC[C@@H](CO)C1 (stereo partly drawn) [Example 5, N-((1,2,3,5,6,7-hexahydro-s-indacen-4-yl)carbamoyl)-4-(((R)-3-(hydroxymethyl)pyrrolidin-1-yl)methyl)-5-methylfuran-2-sulfonimidamide]",< 5,< 5,,
"Cc1oc(S(=N)(=O)NC(=O)Nc2c3c(c(F)c4c2CCC4)CCC3)cc1CN1CC(O)C1 (stereo not drawn) [Example 14, N-((8-fluoro-1,2,3,5,6,7-hexahydro-s-indacen-4-yl)carbamoyl)-4-((3-hydroxyazetidin-1-yl)methyl)-5-methylfuran-2-sulfonimidamide]",< 5,5 to 50,,
"CC(O)c1cc(S(=O)(=O)NC(=O)Nc2c3c(c(F)c4c2CCC4)CCC3)oc1CN1CCNCC1 (stereo not drawn) [Example 72, N-((8-fluoro-1,2,3,5,6,7-hexahydro-s-indacen-4-yl)carbamoyl)-4-(1-hydroxyethyl)-5-(piperazin-1-ylmethyl)furan-2-sulfonamide]",5 to 50,5 to 50,,
"Cc1oc(S(=O)(=O)NC(=O)Nc2c3c(c(F)c4c2CCC4)CCC3)cc1CN(C)CC1(O)CCC1 [Example 35, N-((8-fluoro-1,2,3,5,6,7-hexahydro-s-indacen-4-yl)carbamoyl)-4-((((1-hydroxycyclobutyl)methyl)(methyl)amino)methyl)-5-methylfuran-2-sulfonamide]",< 5,< 5,,
"Cn1nc(S(=O)(=O)NC(=O)Nc2c3c(c(F)c4c2CCC4)CCC3)cc1CN1CCC[C@@H]1CO [Example 63, (R)-N-((8-fluoro-1,2,3,5,6,7-hexahydro-s-indacen-4-yl)carbamoyl)-5-((2-(hydroxymethyl)pyrrolidin-1-yl)methyl)-1-methyl-1 H-pyrazole-3-sulfonamide]",5 to 50,5 to 50,,
"CC(C)NCc1coc(S(=N)(=O)NC(=O)Nc2c3c(cc4c2CCC4)CCC3)c1 (stereo not drawn) [Example 23, N-((1,2,3,5,6,7-hexahydro-s-indacen-4-yl)carbamoyl)-4-((isopropylamino)methyl)furan-2-sulfonimidamide]",,,< 5,< 5
"Cc1oc(S(=N)(=O)NC(=O)Nc2c3c(cc4c2CCC4)CCC3)cc1CN(C)CC1(CO)CCOCC1 (stereo not drawn) [Example 10, N-((1,2,3,5,6,7-hexahydro-s-indacen-4-yl)carbamoyl)-4-((((4-(hydroxymethyl)tetrahydro-2H-pyran-4-yl)methyl)(methyl)amino)methyl)-5-methylfuran-2-sulfonimidamide]",< 5,5 to 50,,
"Cc1oc(S(=N)(=O)NC(=O)Nc2c3c(c(F)c4c2CCC4)CCC3)cc1CN(C)CC1(CO)CCC1 (stereo not drawn) [Example 13, N-((8-fluoro-1,2,3,5,6,7-hexahydro-s-indacen-4-yl)carbamoyl)-4-((((1-(hydroxymethyl)cyclobutyl)methyl)(methyl)amino)methyl)-5-methylfuran-2-sulfonimidamide]",< 5,5 to 50,,
"CNCc1coc([S@@](=N)(=O)NC(=O)Nc2c3c(cc4c2CCC4)CCC3)c1 (single isomer, unassigned) [Example 76]",< 5,< 5,,
"O=C(Nc1c2c(cc3c1CCC3)CCC2)NS(=O)(=O)c1cc2c(o1)CCNC2 [Example 73, N-((1,2,3,5,6,7-hexahydro-s-indacen-4-yl)carbamoyl)-4,5,6,7-tetrahydrofuro[3,2-c]pyridine-2-sulfonamide]",5 to 50,5 to 50,,
"N=S(=O)(NC(=O)Nc1c2c(cc3c1CCC3)CCC2)c1cc(CN2CC(O)C2)co1 (stereo not drawn) [Example 1, N-((1,2,3,5,6,7-hexahydro-s-indacen-4-yl)carbamoyl)-4-((3-hydroxyazetidin-1-yl)methyl)furan-2-sulfonimidamide]",< 5,5 to 50,,
